Patent US20200278355A1, “CONJUGATED PROTEINS AND USES THEREOF” (THE SCRIPPS RESEARCH INSTITUTE, priority 2017, published 2020)

Molecular target: T1, NR0B1 (Homo sapiens, UniProt P51843)
T1 construct: H460 cells or H460 cells expressing luciferase in a 10 cm plate were incubated with indicated compounds; endogenous in cells; host or cells: H460 (NSCLC, KEAP1-mutant)
T1 sequence (P51843 1-470): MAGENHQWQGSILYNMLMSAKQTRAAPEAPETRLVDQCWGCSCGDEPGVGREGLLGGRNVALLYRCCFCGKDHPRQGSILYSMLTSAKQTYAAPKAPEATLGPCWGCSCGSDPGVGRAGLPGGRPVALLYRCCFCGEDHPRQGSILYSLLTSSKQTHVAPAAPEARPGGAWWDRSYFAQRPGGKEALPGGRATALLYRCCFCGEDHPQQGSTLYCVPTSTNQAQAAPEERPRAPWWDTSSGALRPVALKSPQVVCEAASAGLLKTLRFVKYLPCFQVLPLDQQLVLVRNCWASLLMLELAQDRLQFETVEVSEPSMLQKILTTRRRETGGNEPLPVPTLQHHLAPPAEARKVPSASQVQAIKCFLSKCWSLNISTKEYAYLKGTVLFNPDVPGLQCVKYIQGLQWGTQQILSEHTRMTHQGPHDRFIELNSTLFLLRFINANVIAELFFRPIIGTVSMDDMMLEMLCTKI
Assay: isoTOP-ABPP of compound-treated H460 cells: NR0B1
Format: cell-based
Conditions: for receptor occupancy at 40 µM: NCI-H460, 40 μM for 3 h, read-out: target occupancy of C274 of NR0B1
Description: For analysis of NR0B1 ligands or control compound reactivity, H460 cells or H460 cells expressing luciferase in a 10 cm plate were incubated with indicated compounds in serum/dye-free RPMI for 3 hours at 37° C. Cells were washed once ice-cold PBS and lysed in 1% Triton X-100 dissolved in PBS with protease inhibitors (Sigma) by sonication. Samples were clarified by centrifugation for 10 min at 16,000×g. Lysate was adjusted to 1.5 mg ml^−1 in 500 μL.
Samples were labeled for 1 h at ambient temperature with 100 μM iodoacetamide alkyne (1, IA-alkyne, 5 μL of 10 mM stock in DMSO). Samples were conjugated by copper-catalyzed azide-alkyne cycloaddition (CuAAC) to isotopically labeled, TEV-cleavable tags (TEV-tags). Heavy CuAAC reaction mixtures was added to the DMSO-treated or shGFP control samples and light CuAAC reaction mixture was added to compound-treated or shNRF2 samples. The CuAAC reaction mixture consisted of TEV tags (light or heavy, 10 μL of 5 mM stocks in DMSO, final concentration=100 μM), 1 mM tris(2-carboxyethyl)phosphine hydrochloride (TCEP; fresh 50× stock in water, final concentration=1 mM), ligand (17× stock in DMSO:t-butanol 1:4, final concentration=100 μM) and 1 mM CuSO4 (50× stock in water, final concentration=1 mM). The samples were allowed to react for 1 h at which point the samples were centrifuged (16,000×g, 5 min, 4° C.). The resulting pellets were sonicated in ice-cold methanol (500 μL) and the resuspended light- and heavy-labeled samples were then combined pairwise and centrifuged (16,000×g, 5 min, 4° C.). The pellets were solubilized in PBS containing 1.2% SDS (1 mL) with sonication and heating (5 min, 95° C.) and any insoluble material was removed by an additional centrifugation step at ambient temperature (14,000×g, 1 min).
For each sample, 100 μL of streptavidin-agarose beads slurry (Fisher) was washed in 10 mL PBS and then resuspended in 6 mL PBS (final concentration 0.2% SDS in PBS). The SDS-solubilized proteins were added to the suspension of streptavidin-agarose beads and the bead mixture was rotated for 3 h at ambient temperature. After incubation, the beads were pelleted by centrifugation (1,400×g, 3 min) and were washed (2×10 mL PBS and 2×10 mL water).
The beads were transferred to eppendorftubes with 1 mL PBS, centrifuged (1,400×g, 3 min), and resuspended in PBS containing 6 M urea (500 μL). To this was added 10 mM DTT (25 μL of a 200 mM stock in water) and the beads were incubated at 65° C. for 15 mins. 20 mM iodoacetamide (25 μL of a 400 mM stock in water) was then added and allowed to react at 37° C. for 30 mins with shaking. The bead mixture was diluted with 900 μL PBS, pelleted by centrifugation (1,400×g, 3 min), and resuspended in PBS containing 2 M urea (200 μL). To this was added 1 mM CaCl2 (2 μL of a 200 mM stock in water) and trypsin (2 μg, Promega, sequencing grade) and the digestion was allowed to proceed overnight at 37° C. with shaking. The beads were separated from the digest with Micro Bio-Spin columns (Bio-Rad) by centrifugation (1,000×g, 1 min), washed (2×1 mL PBS and 2×1 mL water) and then transferred to fresh eppendorf tubes with 1 mL water. The washed beads were washed once further in 140 μL TEV buffer (50 mM Tris, pH 8, 0.5 mM EDTA, 1 mM DTT) and then resuspended in 140 μL TEV buffer. 5 μL TEV protease (80 μM) was added and the reactions were rotated overnight at 29° C. The TEV digest was separated from the beads with Micro Bio-Spin columns by centrifugation (1,400×g, 3 min) and the beads were washed once with water (100 μL). The samples were then acidified to a final concentration of 5% (v/v) formic acid and stored at −80° C. prior to analysis.
Samples processed for multidimensional liquid chromatography tandem mass spectrometry (MudPIT) were pressure loaded onto a 250 μm (inner diameter) fused silica capillary columns packed with C18 resin (Aqua 5 μm, Phenomenex). […]

engagement of C274 of NR0B1 (NSCLC cells, 40 μM, 3 h) | cysteines in NR0B1 engaged among several quantified cysteines (40 μM, 3 h) | receptor occupancy at 40 µM (NSCLC cells) | relative potency of C274 engagement (NSCLC cells) | engagement of C274 (NSCLC cells, 5 μM, 3 h) | SMILES | BPK-29-competed isoTOP-ABPP analysis (NR0B1 C274, 40 μM)
did not engage C274 |  |  |  |  | O=C(c1ccc(N2CCOCC2)cc1)N1CCC(CN(C(=O)CCl)c2cncnc2)CC1 [BPK-9, 2-chloro-N-((1-(4-morpholinobenzoyl)piperidin-4-yl)methyl)-N-(pyrimidin-5-yl)acetamide] | 
 | the only cysteine in NR0B1 engaged | ~70% |  |  | O=C(CCl)N(Cc1cccc(Cl)c1F)c1ccc(Cl)nc1 [BPK-26, 2-chloro-N-(3-chloro-2-fluorobenzyl)-N-(6-chloropyridin-3-yl)acetamide] | 
 | the only cysteine in NR0B1 engaged | ~70% | superior potency compared to BPK-26 | > 50% | O=C(c1ccc(N2CCOCC2)cc1)N1CCCC(N(Cc2ccccc2)C(=O)CCl)CC1 (centres unmarked) [BPK-29, N-benzyl-2-chloro-N-(1-(4-morpholinobenzoyl)azepan-4-yl)acetamide] | Yes (Competed defined as showing R value ≥ 3.0 at 40 μM of test compound)
